Measured values reported in DBAASP.
In brackets after ≈: the same amount, converted by molar mass. Several values for one entry are separate records, joined by “and”; a condition that tells them apart may be missing. Equal entries are not always repeated. One block for each compound: values may come before it.

Legend:
Assay in all cases: ≥ marks a high value that may be exact or a test limit, other limits are often not marked, values filed in µg/mL are converted to µM
[1] = tested on: Staphylococcus aureus ATCC 25923
[2] = tested on: Pseudomonas aeruginosa PAO1
Escherichia coli MG1655 = tested on: Escherichia coli MG1655
Candida albicans = tested on: Candida albicans
[3] = tested on: Staphylococcus aureus NCTC 10788
[4] = tested on: Escherichia coli NCTC 10418
Pseudomonas aeruginosa = tested on: Pseudomonas aeruginosa
Escherichia coli = tested on: Escherichia coli
Staphylococcus aureus MR = tested on: Staphylococcus aureus MR
Staphylococcus aureus = tested on: Staphylococcus aureus
[5] = tested on: Escherichia coli ATCC 35218
[6] = tested on: Pseudomonas aeruginosa ATCC 27853
[7] = tested on: Salmonella enterica serovar Typhimurium
[8] = tested on: Escherichia coli ATCC 25922
[9] = tested on: Escherichia coli KCTC 1682
[10] = tested on: Salmonella typhimurium KCTC 1926
[11] = tested on: Staphylococcus epidermidis KCTC 1917
[12] = tested on: Bacillus subtilis KCTC 3068
[13] = tested on: Staphylococcus aureus KCTC 1621
[14] = tested on: Pseudomonas aeruginosa KCTC 1637
Salmonella typhimurium = tested on: Salmonella typhimurium
[15] = tested on: Staphylococcus aureus ATCC 29213

Structure (SMILES): CSCC[C@H](NC(=O)[C@@H](NC(=O)[C@H](CCCCN)NC(=O)[C@H](Cc1cnc[nH]1)NC(=O)[C@H](CC(C)C)NC(=O)CN)C(C)C)C(=O)N[C@@H](CCCN=C(N)N)C(=O)N[C@@H](CCC(=O)O)C(=O)N[C@H](C(=O)N[C@@H](CC(C)C)C(=O)NCC(=O)N[C@@H](Cc1ccc(O)cc1)C(=O)N[C@@H](CCC(=O)O)C(=O)N[C@@H](CCCN=C(N)N)C(=O)N[C@@H](CC(N)=O)C(=O)N[C@@H](CO)C(=O)N[C@@H](Cc1ccc(O)cc1)C(=O)N[C@@H](CCCCN)C(N)=O)C(C)C [GLHKVMREVLGYERNSYK]
- MIC [1]: > 128 µM
- MIC [2]: > 128 µM
- MIC (Escherichia coli MG1655): ≥ 128 µM
- MIC (Candida albicans): > 128 µM

Structure (SMILES): CC[C@H](C)[C@H](NC(=O)CNC(=O)[C@H](C)NC(=O)[C@@H](NC(=O)[C@H](C)NC(=O)[C@@H]1CCCN1C(=O)[C@H](CC(C)C)NC(=O)[C@@H](N)Cc1ccccc1)[C@@H](C)CC)C(=O)N[C@@H](CC(C)C)C(=O)N[C@@H](CO)C(=O)N[C@@H](CCC(N)=O)C(=O)N[C@@H](CC(C)C)C(=O)N[C@@H](Cc1ccccc1)C(N)=O [FLPAIAGILSQLF]
- MIC [3]: ≥ 200 µM
- MIC [4]: ≥ 50 µM

Structure (SMILES): CC[C@H](C)[C@H](NC(=O)[C@H](CCCN=C(N)N)NC(=O)[C@H](Cc1c[nH]c2ccccc12)NC(=O)[C@H](CCC(N)=O)NC(=O)[C@@H](N)C(C)C)C(=O)N[C@@H](CCCN=C(N)N)C(=O)N[C@H](C(=O)N[C@@H](CS)C(=O)N[C@H](C(=O)N[C@H](C(=O)N[C@@H](CCCN=C(N)N)C(=O)N[C@@H](C)C(=O)O)[C@@H](C)CC)C(C)C)C(C)C [VQWRIRVCVIRA]
- MIC [1]: 21.3 µM (≈ 32 µg/mL)
- MIC [7]: 21.3 µM (≈ 32 µg/mL)
- MIC [8]: 21.3 µM (≈ 32 µg/mL)
- MIC [2]: 21.3 µM (≈ 32 µg/mL)

Structure (SMILES): CC[C@H](C)[C@H](N)C(=O)N[C@@H](CC(C)C)C(=O)N1CCC[C@H]1C(=O)N[C@@H](Cc1c[nH]c2ccccc12)C(=O)N[C@@H](CCCCN)C(=O)N[C@@H](Cc1c[nH]c2ccccc12)C(=O)N1CCC[C@H]1C(=O)N[C@@H](Cc1c[nH]c2ccccc12)C(=O)N[C@@H](C)C(=O)N1CCC[C@H]1C(=O)N[C@@H](C)C(=O)N[C@@H](CCCN=C(N)N)C(=O)N[C@@H](CCCN=C(N)N)C(N)=O [ILPWKWPWAPARR]
- MIC (Salmonella typhimurium): 11.9 µM (≈ 20 µg/mL)
- MIC (Pseudomonas aeruginosa): 23.9 µM (≈ 40 µg/mL)
- MIC (Escherichia coli): 119 µM (≈ 200 µg/mL)
- MIC (Candida albicans): 0.0012 µM (≈ 0.00201 µg/mL)
- MIC (Staphylococcus aureus): 11.9 µM (≈ 20 µg/mL)

Structure (SMILES): CC[C@H](C)[C@H](NC(=O)[C@@H](NC(=O)[C@@H]1CCCN1C(=O)[C@@H](NC(=O)[C@@H](NC(=O)[C@H](Cc1cnc[nH]1)NC(=O)[C@@H]1CCCN1C(=O)[C@H](CC(C)C)NC(=O)[C@@H](NC(=O)[C@H](Cc1cnc[nH]1)NC(=O)[C@H](CCCCN)NC(=O)[C@H](C)NC(=O)[C@@H](NC(=O)[C@H](CO)NC(=O)CNC(=O)[C@H](CC(C)C)NC(=O)[C@@H](NC(=O)[C@H](CO)NC(=O)[C@H](CC(C)C)NC(=O)[C@H](CC(C)C)NC(=O)CN)C(C)C)C(C)C)C(C)C)C(C)C)C(C)C)C(C)C)C(=O)N[C@@H](C)C(=O)N[C@@H](CCC(=O)O)C(=O)N[C@@H](Cc1cnc[nH]1)C(=O)N[C@@H](CC(C)C)C(N)=O [GLLSVLGSVAKHVLPHVVPVIAEHL]
- MIC (Escherichia coli MG1655): ≥ 120 µM
- MIC [15]: 8 µM (≈ 20.7 µg/mL)

Structure (SMILES): CC[C@H](C)[C@H](NC(=O)[C@H](C)NC(=O)[C@H](CC(C)C)NC(=O)[C@H](Cc1c[nH]c2ccccc12)NC(=O)[C@H](CC(C)C)NC(=O)[C@H](C)N)C(=O)N[C@@H](CCCN=C(N)N)C(=O)N[C@@H](CCCCN)C(=O)N[C@@H](CCCN=C(N)N)C(N)=O [ALWLAIRKR]
- MIC (Pseudomonas aeruginosa): 8.88 µM (≈ 9.99 µg/mL)
- MIC (Escherichia coli): 8.88 µM (≈ 9.99 µg/mL)
- MIC (Staphylococcus aureus MR): ≥ 35.5 µM
- MIC (Staphylococcus aureus): 3.55 µM (≈ 4 µg/mL)

Second part, the compound after the results:

- MIC [3]: 4 µM and 8 µM
- MIC [4]: ≥ 256 µM
Structure (SMILES): CC[C@H](C)[C@H](NC(=O)CNC(=O)[C@@H]1CCCN1C(=O)[C@H](CC(C)C)NC(=O)[C@@H](N)Cc1ccccc1)C(=O)N[C@@H](CC(C)C)C(=O)N[C@@H](CCCCN)C(=O)N[C@H](C(=O)N[C@@H](C)C(=O)N[C@@H](C)C(=O)N[C@@H](CC(N)=O)C(=O)N[C@H](C(=O)N[C@H](C(=O)N1CCC[C@H]1C(=O)NCC(=O)N[C@H](C(=O)N[C@H](C(=O)N[C@H]1CSSC[C@@H](C(=O)O)NC(=O)[C@H](CCCCN)NC(=O)[C@H](CCCCN)NC(=O)[C@H]([C@@H](C)O)NC(=O)[C@H]([C@@H](C)CC)NC(=O)[C@H](C)NC1=O)[C@@H](C)CC)C(C)C)C(C)C)C(C)C)C(C)C [FLPGILKVAANVVPGVICAITKKC]

- MIC (Pseudomonas aeruginosa): 3.63 µM (≈ 4 µg/mL)
- MIC (Escherichia coli): 3.63 µM (≈ 4 µg/mL)
- MIC (Staphylococcus aureus MR): 27.2 µM (≈ 30 µg/mL)
- MIC (Staphylococcus aureus): 2.72 µM (≈ 3 µg/mL)
Structure (SMILES): CC[C@H](C)[C@H](NC(=O)[C@H](C)NC(=O)[C@H](CC(C)C)NC(=O)[C@H](Cc1ccc(O)cc1)NC(=O)[C@H](CC(C)C)NC(=O)[C@H](C)N)C(=O)N[C@@H](CCCN=C(N)N)C(=O)N[C@@H](CCCCN)C(=O)N[C@@H](CCCN=C(N)N)C(N)=O [ALYLAIRKR]

- MIC [1]: > 72.5 µM
- MIC [5]: 9 µM (≈ 18.6 µg/mL)
- MIC [6]: 72.5 µM (≈ 150 µg/mL)
Structure (SMILES): CC[C@H](C)[C@H](NC(C)=O)C(=O)N[C@@H](CC(=O)O)C(=O)NCC(=O)N[C@@H](CC(C)C)C(=O)N[C@@H](CCCCN)C(=O)N[C@@H](C)C(=O)N[C@H](C(=O)N[C@@H](Cc1c[nH]c2ccccc12)C(=O)N[C@@H](CCCCN)C(=O)N[C@@H](CCCCN)C(=O)N[C@H](C(=O)N[C@@H](C)C(=O)N[C@@H](CC(=O)O)C(=O)N[C@@H](CC(C)C)C(=O)N[C@@H](CC(C)C)C(=O)N[C@@H](CCCCN)C(=O)N[C@@H](CC(N)=O)C(=O)N[C@H](C(N)=O)[C@@H](C)O)C(C)C)[C@@H](C)CC [IDGLKAIWKKVADLLKNT]

- MIC [9]: 8 µM (≈ 19.2 µg/mL)
- MIC [10]: 2 µM (≈ 4.8 µg/mL)
- MIC [11]: 4 µM (≈ 9.6 µg/mL)
- MIC [12]: 2 µM (≈ 4.8 µg/mL)
- MIC [13]: 4 µM (≈ 9.6 µg/mL)
- MIC [14]: 8 µM (≈ 19.2 µg/mL)
Structure (SMILES): CC[C@H](C)[C@H](N)C(=O)NCC(=O)N[C@@H](CCCCN)C(=O)N[C@@H](CCCCN)C(=O)N[C@@H](Cc1ccccc1)C(=O)N[C@@H](CCCCN)C(=O)N[C@@H](CCCN=C(N)N)C(=O)N[C@H](C(=O)N[C@H](C(=O)N[C@@H](CCCCN)C(=O)N[C@@H](CCCN=C(N)N)C(=O)N[C@H](C(=O)N[C@@H](CCCCN)C(=O)N[C@@H](CCCCN)C(=O)N[C@@H](Cc1ccccc1)C(=O)N[C@@H](CC(C)C)C(=O)N[C@@H](CCCN=C(N)N)C(=O)N[C@@H](CCCCN)C(=O)N[C@@H](CC(C)C)C(=O)O)[C@@H](C)CC)C(C)C)[C@@H](C)CC [IGKKFKRIVKRIKKFLRKL]

- MIC (Staphylococcus aureus MR): ≥ 63.4 µM
- MIC (Staphylococcus aureus): 60.8 µM (≈ 95.9 µg/mL)
Structure (SMILES): CC(C)C[C@H](NC(=O)[C@@H](NC(=O)[C@H](CCCN=C(N)N)NC(=O)[C@H](CCCN=C(N)N)NC(=O)[C@@H](NC(=O)[C@@H](NC(=O)[C@H](CCCN=C(N)N)NC(=O)[C@H](CCCN=C(N)N)NC(=O)[C@@H](NC(=O)[C@H](CC(C)C)NC(=O)[C@@H](N)CCCN=C(N)N)C(C)C)C(C)C)C(C)C)C(C)C)C(=O)N[C@@H](CCCN=C(N)N)C(N)=O [RLVRRVVRRVLR]

- MIC [9]: 2 µM (≈ 4.67 µg/mL)
- MIC [10]: 2 µM (≈ 4.67 µg/mL)
- MIC [11]: 2 µM (≈ 4.67 µg/mL)
- MIC [12]: 2 µM (≈ 4.67 µg/mL)
- MIC [13]: 2 µM (≈ 4.67 µg/mL)
- MIC [14]: 4 µM (≈ 9.34 µg/mL)
Structure (SMILES): C[C@@H](O)[C@H](NC(=O)[C@H](CCCCN)NC(=O)[C@H](Cc1c[nH]c2ccccc12)NC(=O)[C@H](Cc1c[nH]c2ccccc12)NC(=O)[C@@H](NC(=O)[C@H](CCCCN)NC(=O)[C@@H](N)CCCCN)[C@@H](C)O)C(=O)N[C@@H](Cc1c[nH]c2ccccc12)C(=O)N[C@@H](Cc1c[nH]c2ccccc12)C(=O)N[C@H](C(=O)N[C@@H](CCCCN)C(=O)N[C@@H](Cc1c[nH]c2ccccc12)C(=O)N[C@@H](CO)C(=O)N[C@@H](CCC(N)=O)C(=O)N1CCC[C@H]1C(=O)N[C@@H](CCCCN)C(=O)N[C@@H](CCCCN)C(=O)O)[C@@H](C)O [KKTWWKTWWTKWSQPKK]
